Laboratory results: patent US7223737B1, “Method of treating dry eye disorders using glycosides” (Alcon, Inc., priority 2004, dated 2007)

System: human primary corneal epithelial cells
Assay: mucin secretion assay using human primary corneal epithelial cells
Assay type: cell-based
Conditions: for Soluble Mucin Units/well: 45-minute incubation at 37° C., conditioned medium; for Total Mucin Units/well: soluble plus membrane-associated (NAC wash) mucin; for Stimulation Index: ratio of Total Mucin Units/well test solution to Control

## CCCCCCCCCCCCO[C@@H]1O[C@H](CO)[C@@H](O[C@H]2O[C@H](CO)[C@@H](O)[C@H](O)[C@H]2O)[C@H](O)[C@H]1O [Dodecylmaltoside, n-Dodecyl-beta-D-maltoside]
0.0001% DDM
  Soluble Mucin Units/well: 10 ± 0.6 Units/well
  Total Mucin Units/well: 18.7 ± 0.2 Units/well
  Stimulation Index: 1.23
0.001% DDM
  Soluble Mucin Units/well: 24.7 ± 2.7 Units/well
  Total Mucin Units/well: 32.3 ± 2.9 Units/well
  Stimulation Index: 2.12
0.01% DDM
  Soluble Mucin Units/well: 13.2 ± 0.5 Units/well
  Total Mucin Units/well: 30.17 ± 0.6 Units/well
  Stimulation Index: 1.98
